Experimental findings from patent US11780826B2 (Amgen Inc., priority 2017, dated 2023) are described below.

The structures appear in SMILES notation.

The test relates to Bovine cardiac myofibrils. The test can be described thus: In vitro model of dose-dependent myofibril ATPase modulation (AC1.4, pyruvate kinase/lactate dehydrogenase-coupled ATPase assay at pCa25). The test is classed as biochemical. Particulars: concentration at which ATPase activity was 1.4-fold higher than the bottom of the dose curve, mean of a minimum of two independent tests. In short, it runs like this:
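ATP turnover tracked as NADH absorbance loss at 340 nm, coupled via pyruvate kinase/lactate dehydrogenase, with 1 mM ATP, 2 mM MgCl2 and 12 mM K-PIPES at pH 6.80 (22° C) under EGTA/CaCl2 calcium buffering. Substrate was detergent-treated bovine cardiac myofibrils; 4-parameter curve fit, AC1.4 averaged over at least two runs.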

As to `O=C(N[C@@H](c1ccc(C(F)(F)F)cc1F)C1CC1)[C@H]1CCCN1C(=O)c1cccc(C2(F)COC2)c1` [Example 577, N—((R)-cyclopropyl(2-fluoro-4-(trifluoromethyl)phenyl)methyl)-1-(3-(3-fluoro-3-oxetanyl)benzoyl)-D-prolinamide], the AC1.4 was determined as 3.2945 µM.

Turning to `CS(=O)(=O)c1cccc(C(=O)N2CCCC[C@@H]2C(=O)N[C@@H](c2ccc(C(F)F)cc2F)C2CC2)c1` [Example 578, (2R)-N-((R)-cyclopropyl(4-(difluoromethyl)-2-fluorophenyl)methyl)-1-(3-(methylsulfonyl)benzoyl)-2-piperidinecarboxamide], the AC1.4 is 3.3475 µM.

Turning to `O=C(NCc1ccc(C(F)(F)F)cc1)[C@H]1CCCN1C(=O)[C@H]1CCCN(S(=O)(=O)N2CC(Oc3ccncc3)C2)C1` [Example 580, 1-(((3S)-1-((3-(4-pyridinyloxy)-1-azetidinyl)sulfonyl)-3-piperidinyl)carbonyl)-N-(4-(trifluoromethyl)benzyl)-D-prolinamide], the AC1.4 came out at 3.3545 µM.

Consider `N#CC1CN(S(=O)(=O)N2CCC[C@H](C(=O)N3C[C@@H](O)C[C@@H]3C(=O)NCc3ccc(C(F)(F)F)cc3)C2)C1` [Example 581, (4S)-1-(((3S)-1-((3-cyano-1-azetidinyl)sulfonyl)-3-piperidinyl)carbonyl)-4-hydroxy-N-(4-(trifluoromethyl)benzyl)-D-prolinamide], for which the AC1.4 amounted to 3.364 µM.

Consider `O=C(NCc1ccc(C(F)(F)F)cc1)[C@H]1CCCN1C(=O)[C@H]1CCCN(S(=O)(=O)N2CC(n3cccn3)C2)C1` [Example 582, 1-(((3S)-1-((3-(1H-pyrazol-1-yl)-1-azetidinyl)sulfonyl)-3-piperidinyl)carbonyl)-N-(4-(trifluoromethyl)benzyl)-D-prolinamide], for which the AC1.4 turned out to be 3.371 µM.

`COc1cccc(CNC(=O)[C@H]2CCCN2C(=O)[C@H]2CCCN(S(=O)(=O)N3CC(C#N)C3)C2)c1Cl` [Example 583, N-(2-chloro-3-methoxybenzyl)-1-(((3S)-1-((3-cyano-1-azetidinyl)sulfonyl)-3-piperidinyl)carbonyl)-D-prolinamide] displayed an AC1.4 of 3.3715 µM.

Compound `CN(C)c1cccc(C(=O)N2CCC[C@@H]2C(=O)N[C@@H](c2ccc(C(F)(F)F)cc2F)C2CC2)c1` [Example 584, N-((R)-cyclopropyl(2-fluoro-4-(trifluoromethyl)phenyl)methyl)-1-(3-(dimethylamino)benzoyl)-D-prolinamide] showed an AC1.4 of 3.397 µM.

As for `COc1ccc(C(C)NC(=O)[C@H]2CCCN2C(=O)[C@H]2CCCN(S(=O)(=O)N3CC(C#N)C3)C2)cc1F` (stereo partly drawn) [Example 585, 1-(((3S)-1-((3-cyano-1-azetidinyl)sulfonyl)-3-piperidinyl)carbonyl)-N-((1R)-1-(3-fluoro-4-methoxyphenyl)ethyl)-D-prolinamide,1-(((3S)-1-((3-cyano-1-azetidinyl)sulfonyl)-3-piperidinyl)carbonyl)-N-((1S)-1-(3-fluoro-4-methoxyphenyl)ethyl)-D-prolinamide], the AC1.4 was 3.413 µM.

In turn, `N#C[C@H]1C[C@H](S(=O)(=O)N2CCC[C@H](C(=O)N3CCC[C@@H]3C(=O)NCc3ccc(C(F)(F)F)cc3)C2)C1` [Example 587, 1-(((3S)-1-((trans-3-cyanocyclobutyl)sulfonyl)-3-piperidinyl)carbonyl)-N-(4-(trifluoromethyl)benzyl)-D-prolinamide] had an AC1.4 of 3.4385 µM.

Turning to `CS(=O)(=O)c1cccc(C(=O)N2CC[C@@H](F)[C@@H]2C(=O)N[C@@H](c2ccc(C(F)(F)F)cc2F)C2CC2)c1` [Example 589, (3R)-N-((R)-cyclopropyl(2-fluoro-4-(trifluoromethyl)phenyl)methyl)-3-fluoro-1-(3-(methylsulfonyl)benzoyl)-D-prolinamide], the AC1.4 worked out at 2.881 µM.

`N#CC1CN(S(=O)(=O)N2CCC[C@H](C(=O)N3CCC[C@@H]3C(=O)NCC3CCC(C(F)(F)F)CC3)C2)C1` (stereo partly drawn) [Example 590, 1-(((3S)-1-((3-cyano-1-azetidinyl)sulfonyl)-3-piperidinyl)carbonyl)-N-((cis-4-(trifluoromethyl)cyclohexyl)methyl)-D-prolinamide,1-(((3S)-1-((3-cyano-1-azetidinyl)sulfonyl)-3-piperidinyl)carbonyl)-N-((4-(trifluoromethyl)cyclohexyl)methyl)-D-prolinamide] returned an AC1.4 of 3.4675 µM.

The compound `COc1ccc(CNC(=O)[C@H]2CCCN2C(=O)[C@H]2CCCN(S(=O)(=O)N3CC(C#N)C3)C2)cc1Cl` [Example 591, N-(3-chloro-4-methoxybenzyl)-1-(((3S)-1-((3-cyano-1-azetidinyl)sulfonyl)-3-piperidinyl)carbonyl)-D-prolinamide] yielded an AC1.4 of 3.476 µM.

For `Cc1cc(C(C)NC(=O)[C@H]2CCCN2C(=O)[C@H]2CCCN(S(=O)(=O)N3CC(C#N)C3)C2)ccc1F` (stereo partly drawn) [Example 592, (2R)-1-((S)-1-((3-cyanoazetidin-1-yl)sulfonyl)piperidine-3-carbonyl)-N-(1-(4-fluoro-3-methylphenyl)ethyl)pyrrolidine-2-carboxamide], the AC1.4 was 3.477 µM.

The compound `O=C(N[C@@H](c1cc(F)c(C(F)(F)F)cc1F)C1CC1)[C@H]1C[C@H]2C[C@H]2N1C(=O)c1cc(C2CC2)ccn1` [Example 593, (1R,3R,5R)-N-((R)-cyclopropyl(2,5-difluoro-4-(trifluoromethyl)phenyl)methyl)-2-((4-cyclopropyl-2-pyridinyl)carbonyl)-2-azabicyclo[3.1.0]hexane-3-carboxamide] registered an AC1.4 of 3.49 µM.

The compound `CC(NC(=O)[C@H]1CCCN1C(=O)[C@H]1CCCN(S(=O)(=O)N2CC(C#N)C2)C1)c1ccc(OC(F)F)cc1` (stereo partly drawn) [Example 594, (2R)-1-((S)-1-((3-cyanoazetidin-1-yl)sulfonyl)piperidine-3-carbonyl)-N-(1-(4-(difluoromethoxy)phenyl)ethyl)pyrrolidine-2-carboxamide] yielded an AC1.4 of 3.505 µM.

The compound `C[C@@H](NC(=O)[C@H]1CCCN1C(=O)c1cccc(S(=O)(=O)N2CC3(CC3)C2)c1)c1ccc(Cl)cc1` [Example 595, 1-((3-(5-azaspiro[2.3]hex-5-ylsulfonyl)phenyl)carbonyl)-N-((1R)-1-(4-chlorophenyl)ethyl)-D-prolinamide] gave an AC1.4 of 3.5165 µM.

In the case of `CS(=O)(=O)c1cccc(C(=O)N2[C@@H](C(=O)N[C@@H](c3ccc(C(F)(F)F)cc3)C3CC3)C[C@H]3C[C@H]32)c1` [Example 596, (1R,3R,5R)-N-((R)-cyclopropyl(4-(trifluoromethyl)phenyl)methyl)-2-(3-(methylsulfonyl)benzoyl)-2-azabicyclo[3.1.0]hexane-3-carboxamide], the AC1.4 stood at 2.9335 µM.

`C[C@@H](NC(=O)[C@H]1CCCN1C(=O)[C@H]1CCCN(S(=O)(=O)N2CC(C)(O)C2)C1)c1ccc(C(F)(F)F)cc1F` [Example 597, N-((1R)-1-(2-fluoro-4-(trifluoromethyl)phenyl)ethyl)-1-(((3S)-1-((3-hydroxy-3-methyl-1-azetidinyl)sulfonyl)-3-piperidinyl)carbonyl)-D-prolinamide] gave an AC1.4 of 3.5295 µM.

Take `CS(=O)(=O)c1cncc(C(=O)N2[C@@H](C(=O)N[C@@H](c3cc(F)c(C(F)(F)F)cc3F)C3CC3)C[C@@H]3C[C@@H]32)c1` [Example 598, (1S,3R,5S)-N-((R)-cyclopropyl(2,5-difluoro-4-(trifluoromethyl)phenyl)methyl)-2-((5-(methylsulfonyl)-3-pyridinyl)carbonyl)-2-azabicyclo[3.1.0]hexane-3-carboxamide]: the AC1.4 was 3.0525 µM.

With `O=C(N[C@@H](c1ccc(C(F)(F)F)cc1F)C1CC1)[C@H]1C[C@H](F)CN1C(=O)c1cccc(C2(F)COC2)c1` [Example 599, (4S)-N-((R)-cyclopropyl(2-fluoro-4-(trifluoromethyl)phenyl)methyl)-4-fluoro-1-(3-(3-fluoro-3-oxetanyl)benzoyl)-D-prolinamide], the AC1.4 is 3.5615 µM.

For `Cc1ccnc(C(=O)N2[C@@H](C(=O)N[C@@H](c3cc(F)c(Cl)cc3F)C3COC3)C[C@H]3C[C@H]32)c1` [Example 600, (1R,3R,5R)-N-((R)-(4-chloro-2,5-difluorophenyl)(3-oxetanyl)methyl)-2-((4-methyl-2-pyridinyl)carbonyl)-2-azabicyclo[3.1.0]hexane-3-carboxamide], the AC1.4 turned out to be 3.6113 µM.

`CC(O)C(NC(=O)[C@H]1C[C@H]2C[C@H]2N1C(=O)c1cccc(S(C)(=O)=O)c1)c1ccc(C(F)(F)F)cc1F` (stereo partly drawn) [Example 601, (1R,3R,5R)-N-(1-(2-fluoro-4-(trifluoromethyl)phenyl)-2-hydroxypropyl)-2-(3-(methylsulfonyl)benzoyl)-2-azabicyclo[3.1.0]hexane-3-carboxamide]: the AC1.4 amounted to 3.276 µM.

Consider `COc1ccc(S(C)(=O)=O)cc1C(=O)N1CCC[C@@H]1C(=O)N[C@@H](c1ccc(C(F)(F)F)cc1F)C1CC1` [Example 602, N-((R)-cyclopropyl(2-fluoro-4-(trifluoromethyl)phenyl)methyl)-1-(2-methoxy-5-(methylsulfonyl)benzoyl)-D-prolinamide], for which the AC1.4 was 3.4595 µM.

On to `Cc1cc(C(=O)N2[C@@H](C(=O)N[C@@H](c3cc(F)c(Cl)cc3F)C3COC3)C[C@H]3C[C@H]32)cc(C)n1` [Example 603, (1R,3R,5R)-N-((R)-(4-chloro-2,5-difluorophenyl)(3-oxetanyl)methyl)-2-((2,6-dimethyl-4-pyridinyl)carbonyl)-2-azabicyclo[3.1.0]hexane-3-carboxamide], for which the AC1.4 stood at 3.6775 µM.

With `N#CC1(c2cccc(C(=O)N3CCC[C@@H]3C(=O)N[C@@H](c3ccc(C(F)(F)F)cc3F)C3CC3)c2)CC1` [Example 604, 1-(3-(l-cyanocyclopropyl)benzoyl)-N-((R)-cyclopropyl(2-fluoro-4-(trifluoromethyl)phenyl)methyl)-D-prolinamide], the AC1.4 came to 3.679 µM.
